Results from publication PMC12567909 (Veterinary Sciences, 2025).
Like-named read-outs stand apart in the source and are kept apart here.

Assays:
[1] = biological target: T1, DPV pUL15FL (full-length pUL15) (anatid alphaherpesvirus 1, UniProt C6ZD26); assay type: biochemical
T1 construct: gene UL15

[2] = biological target: T2, pUL15N (N-terminus domain of DPV pUL15) (anatid alphaherpesvirus 1, UniProt C6ZD26); conditions: 1 mM ATP, 2 µM protein, 2 mM MgCl2, 50 mM NaCl, pH 7.5, 37 °C
T2 construct: gene UL15

| Compound | malachite green phosphate release ([1]; 1 mM ATP, 2 mM MgCl2, 50 mM NaCl, pH 7.5, 37 °C) | malachite green phosphate release [2] | malachite green phosphate release [1] |
| --- | --- | --- | --- |
| Nc1ncnc2c1ncn2[C@@H]1O[C@H](COP(=O)(O)OP(=O)(O)OP(=O)(O)O)[C@@H](O)[C@H]1O [ATP] | DPV pUL15FL hydrolyzes both ATP and ADP | the pUL15N exhibited ATPase activity like pUL15FL, whereas pUL15C did not |  |
| Nc1ncnc2c1ncn2[C@@H]1O[C@H](COP(=O)(O)OP(=O)(O)O)[C@@H](O)[C@H]1O [ADP] |  |  | DPV pUL15FL hydrolyzes both ATP and ADP |
